# Experimental data from ChEMBL document CHEMBL1151028, “Synthesis of -hydroxy statine through a facially selective osmylation of a chiral -amido crotonate” (Bioorg Med Chem Lett, 1995).
# Where a SMILES comes first, the peptide text is derived from it. [ ]: non-standard residue; d: D form. The star is where a group is joined. Sta = CC(C)C[C@H](N)[C@@H](O)CC(=O)O; Boc = CC(C)(C)OC(=O)*; GABA = NCCCC(=O)O
# Target: T1, Renin (Homo sapiens, UniProt P00797)
# T1 sequence (P00797 whole entry): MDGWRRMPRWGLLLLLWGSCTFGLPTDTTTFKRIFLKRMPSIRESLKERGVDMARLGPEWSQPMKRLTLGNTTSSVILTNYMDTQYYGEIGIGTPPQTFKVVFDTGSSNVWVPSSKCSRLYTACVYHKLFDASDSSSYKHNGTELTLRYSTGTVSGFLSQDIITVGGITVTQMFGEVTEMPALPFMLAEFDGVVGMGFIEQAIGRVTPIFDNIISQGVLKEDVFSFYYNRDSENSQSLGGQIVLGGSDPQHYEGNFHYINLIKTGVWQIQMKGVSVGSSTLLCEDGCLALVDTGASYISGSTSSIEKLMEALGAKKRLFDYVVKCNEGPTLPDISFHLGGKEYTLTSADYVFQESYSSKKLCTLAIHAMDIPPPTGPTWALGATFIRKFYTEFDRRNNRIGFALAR
# Experiment: Inhibitory activity against renin was determined
row,IC50 [µM],SMILES
1,3,CC(C)C[C@H](NC(=O)[C@H](Cc1c[nH]cn1)NC(=O)[C@H](Cc1ccccc1)NC(=O)OC(C)(C)C)[C@@H](O)[C@H](O)C(=O)NCCCC(=O)O
2,3.2,CC(C)C[C@H](NC(=O)[C@H](Cc1cnc[nH]1)NC(=O)[C@H](Cc1ccccc1)NC(=O)OC(C)(C)C)[C@@H](O)CC(=O)NCCCC(=O)O (Boc-FH[Sta][GABA]-OH)
3,63,CC(C)C[C@H](NC(=O)[C@H](Cc1cnc[nH]1)NC(=O)[C@H](Cc1ccccc1)NC(=O)OC(C)(C)C)[C@H](O)[C@@H](O)C(=O)NCCCC(=O)O
